Measurements reported in patent US8802661B2, “C-28 amides of modified C-3 betulinic acid derivatives as HIV maturation inhibitors” (priority 2010, dated 2014).
Read-outs that look alike come from different tables or passages of the source.

System: recombinant NL4-3 virus (Renilla luciferase in nef, Gag P373S)
Test: HIV Cell Culture Assay (luciferase reporter virus in MT-2 cells)
Assay type: cell-based
Outline: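 Luciferase signal is the read-out: after 4-5 days of infection in the presence of serially diluted compound, MT-2 cells are lysed with a premix of lysis buffer, luciferase reagent and Stop & Glo substrate, and luminescence is read immediately.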

Structure (SMILES): C=C(C)[C@@H]1CC[C@]2(C(=O)NCCN(CCO)CCO)CC[C@]3(C)[C@H](CC[C@@H]4[C@@]5(C)CC=C(c6ccc(C(=O)O)cc6)C(C)(C)[C@@H]5CC[C@]43C)[C@@H]12 [Example 76, 4-((1R,3aS,5aR,5bR,7aR,11aS,11bR,13aR,13bR)-3a-(2-(bis(2-hydroxyethyl)amino)ethylcarbamoyl)-5a,5b,8,8,11a-pentamethyl-1-(prop-1-en-2-yl)-2,3,3a,4,5,5a,5b,6,7,7a,8,11,11a,11b,12,13,13a,13b-octadecahydro-1H-cyclopenta[a]chrysen-9-yl)benzoic acid]
- EC50 (NL43, read-out: EC50 Group): < 100 nM

Structure (SMILES): C=C(C)[C@@H]1CC[C@]2(C(=O)N(CCO)CCN(C)C)CC[C@]3(C)[C@H](CC[C@@H]4[C@@]5(C)CC=C(c6ccc(C(=O)O)cc6)C(C)(C)[C@@H]5CC[C@]43C)[C@@H]12 [Example 77, 4-((1R,3aS,5aR,5bR,7aR,11aS,11bR,13aR,13bR)-3a-((2-(dimethylamino)ethyl)(2-hydroxyethyl)carbamoyl)-5a,5b,8,8,11a-pentamethyl-1-(prop-1-en-2-yl)-2,3,3a,4,5,5a,5b,6,7,7a,8,11,11a,11b,12,13,13a,13b-octadecahydro-1H-cyclopenta[a]chrysen-9-yl)benzoic acid]
- EC50 (NL43, read-out: EC50 Group): > 100 nM

Structure (SMILES): CC(C)[C@@H]1CC[C@]2(C(=O)NCCN(C)C)CC[C@]3(C)[C@H](CC[C@@H]4[C@@]5(C)CC=C(c6ccc(C(=O)O)cc6)C(C)(C)[C@@H]5CC[C@]43C)[C@@H]12 [Example 78, 4-((1S,3aS,5aR,5bR,7aR,11aS,11bR,13aR,13bR)-3a-(2-(dimethylamino)ethylcarbamoyl)-1-isopropyl-5a,5b,8,8,11a-pentamethyl-2,3,3a,4,5,5a,5b,6,7,7a,8,11,11a,11b,12,13,13a,13b-octadecahydro-1H-cyclopenta[a]chrysen-9-yl)benzoic acid]
- EC50 (NL43, read-out: EC50 Group): < 100 nM

Structure (SMILES): C=C(C)[C@@H]1CC[C@]2(C(=O)NCC(O)C(=O)O)CC[C@]3(C)[C@H](CC[C@@H]4[C@@]5(C)CC=C(c6ccc(C(=O)O)cc6)C(C)(C)[C@@H]5CC[C@]43C)[C@@H]12 (stereo partly drawn) [Example 79, 4-((1R,3aS,5aR,5bR,7aR,11aS,11bR,13aR,13bR)-3a-(2-carboxy-2-hydroxyethylcarbamoyl)-5a,5b,8,8,11a-pentamethyl-1-(prop-1-en-2-yl)-2,3,3a,4,5,5a,5b,6,7,7a,8,11,11a,11b,12,13,13a,13b-octadecahydro-1H-cyclopenta[a]chrysen-9-yl)benzoic acid]
- EC50 (NL43, read-out: EC50 Group): < 100 nM

Structure (SMILES): C=C(C)[C@@H]1CC[C@]2(C(=O)NCCN(C)CC(=O)O)CC[C@]3(C)[C@H](CC[C@@H]4[C@@]5(C)CC=C(c6ccc(C(=O)O)cc6)C(C)(C)[C@@H]5CC[C@]43C)[C@@H]12 [Example 80, 4-((1R,3aS,5aR,5bR,7aR,11aS,11bR,13aR,13bR)-3a-(2-((carboxymethyl)(methyl)amino)ethylcarbamoyl)-5a,5b,8,8,11a-pentamethyl-1-(prop-1-en-2-yl)-2,3,3a,4,5,5a,5b,6,7,7a,8,11,11a,11b,12,13, 13a,13b-octadecahydro-1H-cyclopenta[a]chrysen-9-yl)benzoic acid]
- EC50 (NL43, read-out: EC50 Group): < 100 nM

Structure (SMILES): C=C(C)[C@@H]1CC[C@]2(C(=O)NCCNCC(=O)O)CC[C@]3(C)[C@H](CC[C@@H]4[C@@]5(C)CC=C(c6ccc(C(=O)O)cc6)C(C)(C)[C@@H]5CC[C@]43C)[C@@H]12 [Example 81, 4-((1R,3aS,5aR,5bR,7aR,11aS,11bR,13aR,13bR)-3a-(2-(carboxymethylamino)ethylcarbamoyl)-5a,5b,8,8,11a-pentamethyl-1-(prop-1-en-2-yl)-2,3,3a,4,5,5a,5b,6,7,7a,8,11,11a,11b,12,13,13a,13b-octadecahydro-1H-cyclopenta[a]chrysen-9-yl)benzoic acid]
- EC50 (NL43, read-out: EC50 Group): < 100 nM

Structure (SMILES): C=C(C)[C@@H]1CC[C@]2(C(=O)NCCS(=O)(=O)O)CC[C@]3(C)[C@H](CC[C@@H]4[C@@]5(C)CC=C(c6ccc(C(=O)O)cc6)C(C)(C)[C@@H]5CC[C@]43C)[C@@H]12 [Example 82, sodium 4-((1R,3aS,5aR,5bR,7aR,11aS,11bR,13aR,13bR)-5a,5b,8,8,11a-pentamethyl-1-(prop-1-en-2-yl)-3a-(2-sulfonatoethylcarbamoyl)-2,3,3a,4,5,5a,5b,6,7,7a,8,11,11a,11b,12,13,13a,13b-octadecahydro-1H-cyclopenta[a]chrysen-9-yl)benzoate]
- EC50 (NL43): 1230 nM

Structure (SMILES): C=C(C)[C@@H]1CC[C@]2(C(=O)NCCN(CC)CC(=O)O)CC[C@]3(C)[C@H](CC[C@@H]4[C@@]5(C)CC=C(c6ccc(C(=O)O)cc6)C(C)(C)[C@@H]5CC[C@]43C)[C@@H]12 [Example 83, 4-((1R,3aS,5aR,5bR,7aR,11aS,11bR,13aR,13bR)-3a-(2-((carboxymethyl)(ethyl)amino)ethylcarbamoyl)-5a,5b,8,8,11a-pentamethyl-1-(prop-1-en-2-yl)-2,3,3a,4,5,5a,5b,6,7,7a,8,11,11a,11b,12,13,13a,13b-octadecahydro-1H-cyclopenta[a]chrysen-9-yl)benzoic acid]
- EC50 (NL43, read-out: EC50 Group): < 100 nM

Structure (SMILES): C=CNC(=O)[C@]12CC[C@@H](C(=C)C)[C@@H]1[C@H]1CC[C@@H]3[C@@]4(C)CC=C(c5ccc(C(=O)O)cc5)C(C)(C)[C@@H]4CC[C@@]3(C)[C@]1(C)CC2 [Example 84, 4-((1R,3aS,5aR,5bR,7aR,11aS,11bR,13aR,13bR)-5a,5b,8,8,11a-pentamethyl-1-(prop-1-en-2-yl)-3a-(vinylcarbamoyl)-2,3,3a,4,5,5a,5b,6,7,7a,8,11,11a,11b,12,13,13a,13b-octadecahydro-1H-cyclopenta[a]chrysen-9-yl)benzoic acid]
- EC50 (NL43, read-out: EC50 Group): < 100 nM

Structure (SMILES): C=C(C)[C@@H]1CC[C@]2(C(=O)NCCCN3CCS(=O)(=O)CC3)CC[C@]3(C)[C@H](CC[C@@H]4[C@@]5(C)CC=C(c6ccc(C(=O)O)cc6)C(C)(C)[C@@H]5CC[C@]43C)[C@@H]12 [Example 85, 4-((1R,3aS,5aR,5bR,7aR,11aS,11bR,13aR,13bR)-3a-((3-(1,1-dioxido-4-thiomorpholinyl)propyl)carbamoyl)-1-isopropenyl-5a,5b,8,8,11a-pentamethyl-2,3,3a,4,5,5a,5b,6,7,7a,8,11,11a,11b,12,13,13a,13b-octadecahydro-1H-cyclopenta[a]chrysen-9-yl)benzoic acid]
- EC50 (NL43, read-out: EC50 Group): < 100 nM

Structure (SMILES): C=C(C)[C@@H]1CC[C@]2(C(=O)NCCCn3ccnc3)CC[C@]3(C)[C@H](CC[C@@H]4[C@@]5(C)CC=C(c6ccc(C(=O)O)cc6)C(C)(C)[C@@H]5CC[C@]43C)[C@@H]12 [Example 86, 4-((1R,3aS,5aR,5bR,7aR,11aS,11bR,13aR,13bR)-3a-(3-(1H-imidazol-1-yl)propylcarbamoyl)-5a,5b,8,8,11a-pentamethyl-1-(prop-1-en-2-yl)-2,3,3a,4,5,5a,5b,6,7,7a,8,11,11a,11b,12,13,13a,13b-octadecahydro-1H-cyclopenta[a]chrysen-9-yl)benzoic acid]
- EC50 (NL43, read-out: EC50 Group): < 100 nM

Structure (SMILES): C=C(C)[C@@H]1CC[C@]2(C(=O)NCCCN3CCCC3=O)CC[C@]3(C)[C@H](CC[C@@H]4[C@@]5(C)CC=C(c6ccc(C(=O)O)cc6)C(C)(C)[C@@H]5CC[C@]43C)[C@@H]12 [Example 87, 4-((1R,3aS,5aR,5bR,7aR,11aS,11bR,13aR,13bR)-5a,5b,8,8,11a-pentamethyl-3a-(3-(2-oxopyrrolidin-1-yl)propylcarbamoyl)-1-(prop-1-en-2-yl)-2,3,3a,4,5,5a,5b,6,7,7a,8,11,11a,11b,12,13,13a,13b-octadecahydro-1H-cyclopenta[a]chrysen-9-yl)benzoic acid]
- EC50 (NL43, read-out: EC50 Group): < 100 nM

Structure (SMILES): C=C(C)[C@@H]1CC[C@]2(C(=O)NCCN(CC(=O)O)CC(=O)O)CC[C@]3(C)[C@H](CC[C@@H]4[C@@]5(C)CC=C(c6ccc(C(=O)O)cc6)C(C)(C)[C@@H]5CC[C@]43C)[C@@H]12 [Example 88, 2,2′-(2-((1R,3aS,5aR,5bR,7aR,11aS,11bR,13aR,13bR)-9-(4-carboxyphenyl)-5a,5b,8,8,11a-pentamethyl-1-(prop-1-en-2-yl)-2,3,3a,4,5,5a,5b,6,7,7a,8,11,11a,11b,12,13,13a,13b-octadecahydro-1H-cyclopenta[a]chrysene-3a-carboxamido)ethylazanediyl)diacetic acid]
- EC50 (NL43, read-out: EC50 Group): > 100 nM

Structure (SMILES): C=C(C)[C@@H]1CC[C@]2(C(=O)NCCN(CC)CCC(=O)O)CC[C@]3(C)[C@H](CC[C@@H]4[C@@]5(C)CC=C(c6ccc(C(=O)O)cc6)C(C)(C)[C@@H]5CC[C@]43C)[C@@H]12 [Example 89, 4-((1R,3aS,5aR,5bR,7aR,11aS,11bR,13aR,13bR)-3a-(2-((2-carboxyethyl)(ethyl)amino)ethylcarbamoyl)-5a,5b,8,8,11a-pentamethyl-1-(prop-1-en-2-yl)-2,3,3a,4,5,5a,5b,6,7,7a,8,11,11a,11b,12,13,13a,13b-octadecahydro-1H-cyclopenta[a]chrysen-9-yl)benzoic acid]
- EC50 (NL43, read-out: EC50 Group): < 100 nM

Structure (SMILES): C=C(C)[C@@H]1CC[C@]2(C(=O)NCCN(CCC(=O)O)CCC(=O)O)CC[C@]3(C)[C@H](CC[C@@H]4[C@@]5(C)CC=C(c6ccc(C(=O)O)cc6)C(C)(C)[C@@H]5CC[C@]43C)[C@@H]12 [Example 90, 3,3′-(2-((1R,3aS,5aR,5bR,7aR,11aS,11bR,13aR,13bR)-9-(4-carboxyphenyl)-5a,5b,8,8,11a-pentamethyl-1-(prop-1-en-2-yl)-2,3,3a,4,5,5a,5b,6,7,7a,8,11,11a,11b,12,13,13a,13b-octadecahydro-1H-cyclopenta[a]chrysene-3a-carboxamido)ethylazanediyl)dipropanoic acid]
- EC50 (NL43, read-out: EC50 Group): > 100 nM

Structure (SMILES): C=C(C)[C@@H]1CC[C@]2(C(=O)NCCNCCC(=O)O)CC[C@]3(C)[C@H](CC[C@@H]4[C@@]5(C)CC=C(c6ccc(C(=O)O)cc6)C(C)(C)[C@@H]5CC[C@]43C)[C@@H]12 [Example 91, 4-((1R,3aS,5aR,5bR,7aR,11aS,11bR,13aR,13bR)-3a-(2-(2-carboxyethylamino)ethylcarbamoyl)-5a,5b,8,8,11a-pentamethyl-1-(prop-1-en-2-yl)-2,3,3a,4,5,5a,5b,6,7,7a,8,11,11a,11b,12,13,13a,13b-octadecahydro-1H-cyclopenta[a]chrysen-9-yl)benzoic acid]
- EC50 (NL43, read-out: EC50 Group): < 100 nM
